Experimental data reported in US20140037694A1, “ADJUVANT FOR TRANSDERMAL OR TRANSMUCOSAL ADMINISTRATION AND PHARMACEUTICAL PREPARATION CONTAINING SAME” (HISAMITSU PHARMACEUTICAL CO., INC., priority 2011, published 2014).
“Also recorded” adds a separate entry of the source.

Experiments:
[1] = test system: OVA-specific IgG antibody titer; test: Microneedle (OVA) application + transdermal adjuvant application; OVA-specific IgG antibody titer by ELISA; format: in vivo, hairless rats; conditions: for IgG antibody titer / adjuvant effect (FIG. 5): Example 5; for IgG antibody titer / adjuvant effect (FIG. 5) / IgG antibody titer / adjuvant effect (FIG. 2): 120 μL stock solution, 6 hr after OVA microneedles; for IgG antibody titer / adjuvant effect (FIG. 5) / IgG antibody titer / adjuvant effect (FIG. 1) / IgG antibody titer / adjuvant effect (FIG. 2): titers after 5 weeks; for IgG antibody titer / adjuvant effect (FIG. 5) / IgG antibody titer / adjuvant effect (FIG. 1): compared to OVA alone; for IgG antibody titer / adjuvant effect (FIG. 1): Example 1, 120 μL stock solution on patch-test tape for 6 hr after OVA microneedles, dosing weeks 0, 2, 4; for IgG antibody titer / adjuvant effect (FIG. 2): Example 3, purified water control; for Adjuvant effect against anti-OVA IgG: titers after 4 weeks
skin = test system: skin; design: Skin irritation score: key to the marks not given beside the values; conditions: rat, in vivo
[2] = test system: OVA-specific IgG antibody titer; test: Microneedle (OVA) application + transdermal adjuvant application; OVA-specific IgG antibody titer by ELISA; format: in vivo, hairless rats; conditions: Example 4
Procedure: (§1) Regarding (i) and (ii), OVA 20 μg/[…] (saline) was intradermally administered.

[3] = test system: OVA-specific IgG antibody titer; test: Intradermic injection (OVA) application + glycerin application; OVA-specific IgG antibody titer by ELISA; format: in vivo, hairless rats; conditions: Example 4; intradermal OVA 20 μg + glycerin co-used; after two weeks
Procedure: as §1

SMILES: CCCCCCCC/C=C\CCCCCCCC(=O)OCC(O)CO (stereo not shown) [GMO, monoglyceryl oleate]
- IgG antibody titer / adjuvant effect (FIG. 5) [1]: adjuvant effect similar to that of low molecules such as glycerin

SMILES: CC(O)CO (stereo not shown) [PG, propylene glycol]
- IgG antibody titer / adjuvant effect (FIG. 5) [1]: strong adjuvant effect

SMILES: CCO [ethanol]
- Skin irritation observation (skin): significant skin irritation accompanied by necrosis
- Skin irritation score (skin): +++
- IgG antibody titer / adjuvant effect (FIG. 1) [1]: high adjuvant effect

SMILES: OCC(O)CO [glycerin]
- Adjuvant effect (FIG. 3) ([2]; OVA by microneedles + glycerin 120 μL 6 hr, titers after 4 weeks, compared to intradermal injection of OVA): exhibited more clearly by the microneedle application
- IgG antibody titer time course (FIG. 4) ([2]; OVA microneedles with concomitant glycerin, from 2 weeks): increase the IgG antibody titer was observed
- IgG antibody (FIG. 4) [3]: no IgG antibody was detected
- IgG antibody titer / adjuvant effect (FIG. 1) [1]: high adjuvant effect
- IgG antibody titer / adjuvant effect (FIG. 2) [1]: adjuvant effect of the glycerin was confirmed
- IgG antibody titer / adjuvant effect (FIG. 5) [1]: strong adjuvant effect
- Adjuvant effect against anti-OVA IgG ([1]; Example 6, glycerin concentration 25%, 120 μL 6 hr): none
- Adjuvant effect against anti-OVA IgG ([1]; Example 6, glycerin concentration 75%, 120 μL 6 hr): excellent adjuvant effect was confirmed
- Adjuvant effect against anti-OVA IgG ([1]; Example 6, glycerin concentration 75%, 120 μL 6 hr, listed as Glycerin): present
- Adjuvant effect against anti-OVA IgG ([1]; Example 7, 100% glycerin applied 10 min after antigen administration by microneedles, 6 hr): apparent increase in the IgG antibody titer; also recorded: high IgG antibody titer
- Adjuvant effect against anti-OVA IgG ([1]; Example 7, 100% glycerin applied 10 min after antigen administration by microneedles, 6 hr, listed as Glycerin): present
- Adjuvant effect against anti-OVA IgG ([1]; Example 7, simultaneously with antigen, mixture of OVA/pullulan/41% glycerin on microneedles): no adjuvant effect was observed
- Adjuvant effect against anti-OVA IgG ([1]; Example 7, simultaneously with antigen, mixture of OVA/pullulan/41% glycerin on microneedles, listed as Glycerin): none
- Adjuvant effect ([1]; glycerin concentration 100 wt %): particularly excellent adjuvant effect

SMILES: CC(C)=CCC/C(C)=C/CC/C(C)=C/CC/C=C(\C)CC/C=C(\C)CCC=C(C)C [squalene, reference compound]
- Skin irritation (skin): no skin irritation
- IgG antibody titer / adjuvant effect (FIG. 2) [1]: low IgG antibody titer similar to the control

SMILES: CC(=O)OCC(COC(C)=O)OC(C)=O [triacetin]
- IgG antibody titer / adjuvant effect (FIG. 5) [1]: strong adjuvant effect
